Entries after “also recorded” stand apart in the source; their conditions may differ. Counter-ions that a name gives are not always drawn.
How the values were obtained:
[1] = test system: pregnant rats; conditions: given to pregnant rats; cited from earlier work
[2] = test system: pregnant mice; conditions: given to pregnant mice; cited from earlier work
[3] = test system: humans; conditions: 1950s and 1960s; cited from earlier work
[4] = test system: RTT spheroids; assay: FLIPR spontaneous calcium oscillation assay of iPSC-derived cortical brain spheroids (SMART library screen); assay type: cell-based, human; conditions: for outcome of the SMART library screen (multivariant analysis): 298-compound SMART library on WT and RTT matured spheroids; for rescue or reversal of the RTT disease state, multi parametric plot of spheroid calcium oscillation activity / effect of the drugs on the condition (spontaneous calcium oscillations): 1 micro molar; for rescue or reversal of the RTT disease state, multi parametric plot of spheroid calcium oscillation activity: FIG. 3 and FIG. 4, compared with WT spheroids; for effect of the drugs on the condition (spontaneous calcium oscillations): WT and RTT spheroids, FIG. 4
Description: In one embodiment, the present disclosure provides human induced pluripotent stem cells iPScs that are subsequently differentiated into human cortical neurons comprising neurons and astrocytes in approximately a 50:50 ratio. The ratio can be adjusted on a case by case basis depending on the particular disease of interest from 1 to 99% either neurons or astrocytes. The 3D spheroids are comprised of approximately 50:50 neurons to astrocytes ratio +1-10%. The methods of differentiating and forming 3 dimensional spheroids and functional testing with FLIPR optical techniques is described in copending patent application No. 62/532667. In the examples in this invention we use a disease model cell line which are known to carry genes responsible for Rett syndrome.
In the present disclosure both Wild Type (WT) and Rett Disease (RTT) cortical brain human tissue spheroids were prepared for the purpose of high throughput screening to identify therapeutic compounds that can modulate the brain activity in an attempt to revert or rescue the disease state back to near normal activity or homeostasis. For example, the cell lines employed (control or “WT” and disease “RTT”) may be from a family without and with the Rett disease phenotype.
The method disclosed herein may, in one embodiment, include manufacturing 3D spheroids in 384 well round bottom microtiter plates, see, e.g. U.S. patent application No. 62/532,667, the disclosure of which is incorporated herein. […] In the present disclosure, 6 to 14 weeks of maturation is a maturation range for testing, e.g., 8 to 10 weeks of maturation.
The oscillations being measured are from calcium flux moving into and out of the cells at ambient conditions. The oscillations are spontaneous and not generated by an external source. The measurements are conducted in real time and the data captured by using a technique called FLIPR that is well known in the prior art. […] When analyzing the data, it is important to understand that multiple factors contribute to the signal being recorded by the FLIPR software. Therefore, in the present disclosure 7 parameters are recorded to determine if the data generated from the spheroid is meaningful. The parameters measured are, e.g., peak count, peak width, average peak spacing, peak spacing standard deviation, peak decay time, peak rise time, and/or peak amplitude.
In the present disclosure, the SMART library that contained 298 compounds was used on both WT and RTT matured spheroids over several weeks and the FLIPR data collected and analyzed for potential therapeutic efficacy. The SMART (Selected Molecular Agents for Rett Therapy) library of compounds is well vetted by modern day bioinformatics methods, tightly focused on Rett syndrome and its biological causes. The library is currently housed at the University of Illinois-Chicago. […] With the goals in mind to save both time and resources and accelerate drug discovery for Rett syndrome, the compounds in the SMART library are readily available to investigators working on Rett syndrome research.

| Compound | outcome of the SMART library screen (multivariant analysis) [4] | also measured |
| --- | --- | --- |
| O=C1CCC(N2C(=O)c3ccccc3C2=O)C(=O)N1 (stereo not shown) [thalidomide] |  | birth defects [1]: does not cause birth defects; birth defects [2]: does not cause birth defects; birth defects [3]: caused an international epidemic of birth defects |
| NCC(CC(=O)O)c1ccc(Cl)cc1 (stereo not shown) [Baclofen] | therapeutics of interest |  |
| OC(CCN1CCCCC1)(c1ccccc1)C1CCCCC1 (stereo not shown) [Benzhexol Hydrochloride] | therapeutics of interest |  |
| CNCC[C@@H](Oc1ccccc1C)c1ccccc1 [Atomoxetine, Atomoxetine (Tomoxetine)] | therapeutics of interest |  |
| O=C(CCCCCCC(=O)Nc1ccccc1)NO [Vorinostat] |  | rescue or reversal of the RTT disease state, multi parametric plot of spheroid calcium oscillation activity ([4]; RTT spheroids): no effect to rescue or reverse the spontaneous calcium oscillations; effect of the drugs on the condition (spontaneous calcium oscillations) [4]: made the condition worse |
| CC(C)COc1ccc(CNC(=O)N(Cc2ccc(F)cc2)C2CCN(C)CC2)cc1 [Pinmavanserin] | therapeutics of interest |  |
| O=c1n(CCCN2CCN(c3cccc(Cl)c3)CC2)nc2ccccn12 [Trazodone, Trazodone (Beneficat)] | therapeutics of interest |  |
| Cc1nccn1CC1CCc2c(c3ccccc3n2C)C1=O (stereo not shown) [Ondansetron] | therapeutics of interest |  |
| Oc1cc(O)c2c(c1)O[C@H](c1cc(O)c(O)c(O)c1)[C@H](O)C2 [Epigallocatechin] |  | rescue or reversal of the RTT disease state, multi parametric plot of spheroid calcium oscillation activity ([4]; RTT spheroids): no effect to rescue or reverse the spontaneous calcium oscillations; effect of the drugs on the condition (spontaneous calcium oscillations) [4]: made the condition worse |
| O=C1Nc2cc(Br)ccc2/C1=C1/Nc2ccccc2/C1=N\O [Bromoindirubin-3-oxime] | therapeutics of interest |  |
| CC(=O)Nc1nnc(S(N)(=O)=O)s1 [Acetazolamide] | therapeutics of interest |  |
| CC1Nc2ccc(Cl)cc2S(=O)(=O)N1 (stereo not shown) [IDRA-21] | therapeutics of interest |  |
| CCOC(=O)C1=C[C@]2(CC)CCCN3CCc4c(n1c1ccccc41)[C@@H]32 [Vinpocetine] | therapeutics of interest |  |
| CN1CCC[C@@H]1Cc1c[nH]c2ccc(CCS(=O)(=O)c3ccccc3)cc12 [Eletriptan HBr Salt] | therapeutics of interest |  |
| COc1cc(N)c(Cl)cc1C(=O)NC1CCN(Cc2ccccc2)CC1 [Clebopride Mal ate] | therapeutics of interest |  |
| OC(CCN1CCCCC1)(c1ccccc1)C1CC2C=CC1C2 (stereo not shown) [Biperiden] | therapeutics of interest |  |
| CC(C)n1c(=O)n(C(=O)NC2CC3CCC(C2)N3C)c2ccccc21 (stereo not shown) [BIMU-8] | therapeutics of interest | rescue or reversal of the RTT disease state, multi parametric plot of spheroid calcium oscillation activity ([4]; RTT spheroids): significant effect on reversing or rescuing the RTT disease state; rescue of spontaneous calcium peak frequency and amplitude behavior to the WT state ([4]; RTT spheroids, 2-week exposure time, FIG. 5): rescuing the oscillation activity back to WT normal behavior; also recorded: nearly rescued the WT state |
| COc1cc(C(C)=O)ccc1OCCCN1CCC(c2noc3cc(F)ccc23)CC1 [Iloperidone] | therapeutics of interest |  |
| CN(C)CCCOc1nn(Cc2ccccc2)c2ccccc12.Cl [Benzydiamine Hydrochloride] | therapeutics of interest |  |
